Here are results for 16 compounds from US12187709B2 (Genentech, Inc., priority 2021, dated 2025).

In one test the target is Cbl-b (Homo sapiens (Human), UniProt Q13191). The test is described as follows: Cbl-b LCK Ub TR-FRET assay (Cbl-b Lck HTRF). Conditions: for IC50: Cbl-b LCK Ub TR-FRET; for fold-selectivity (Cbl-b over C-cbl): ratio C-cbl Lck HTRF IC50 / Cbl-b Lck HTRF IC50. In kind it is biochemical. The essentials:
(§1)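 After the ubiquitination reaction, detection mixture was added and plates incubated 20 min at room temperature before reading. IC50 values were calculated with wells lacking LCK as the low control and DMSO as the high control.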
Background: In TR-FRET formats the signal depends on donor and acceptor labels being close together.

For another test, the target named is c-Cbl (Homo sapiens (Human), UniProt P22681). The test is described as follows: C-Cbl LCK Ub TR-FRET assay (C-cbl Lck HTRF). The test is classed as biochemical. The essentials: as §1
Chain of c-Cbl (P22681 47-435): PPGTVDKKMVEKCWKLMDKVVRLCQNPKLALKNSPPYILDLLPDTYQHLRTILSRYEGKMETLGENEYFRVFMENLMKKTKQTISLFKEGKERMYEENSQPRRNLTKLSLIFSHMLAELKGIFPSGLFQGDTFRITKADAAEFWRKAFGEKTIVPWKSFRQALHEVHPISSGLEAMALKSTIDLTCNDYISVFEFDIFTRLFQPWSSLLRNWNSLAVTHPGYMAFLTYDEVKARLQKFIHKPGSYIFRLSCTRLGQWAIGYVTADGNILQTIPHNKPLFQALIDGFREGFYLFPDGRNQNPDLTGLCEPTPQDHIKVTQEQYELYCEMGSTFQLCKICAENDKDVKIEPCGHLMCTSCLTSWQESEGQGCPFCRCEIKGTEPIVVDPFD
The target in test [1] is Human Cbl-b (residues 40-426) (Homo sapiens (Human), UniProt Q13191). The test is described as follows: Cbl-b SPR assay. The test is classed as binding. Conditions: for Fold of selectivity: C-cbl SPR Kd vs Cbl-b SPR Kd; for Kd: SPR, 20° C. The essentials: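 Values derive from a 1:1 model fitted to multicycle kinetics on captured protein (1300-1500 RU), using six 2-fold concentrations, 60 s contact and dissociation of 120-1200 s. In the chaser format, kd comes from a single-exponential fit of % site occupancy over time.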
Chain of Human Cbl-b (residues 40-426) (Q13191 40-426): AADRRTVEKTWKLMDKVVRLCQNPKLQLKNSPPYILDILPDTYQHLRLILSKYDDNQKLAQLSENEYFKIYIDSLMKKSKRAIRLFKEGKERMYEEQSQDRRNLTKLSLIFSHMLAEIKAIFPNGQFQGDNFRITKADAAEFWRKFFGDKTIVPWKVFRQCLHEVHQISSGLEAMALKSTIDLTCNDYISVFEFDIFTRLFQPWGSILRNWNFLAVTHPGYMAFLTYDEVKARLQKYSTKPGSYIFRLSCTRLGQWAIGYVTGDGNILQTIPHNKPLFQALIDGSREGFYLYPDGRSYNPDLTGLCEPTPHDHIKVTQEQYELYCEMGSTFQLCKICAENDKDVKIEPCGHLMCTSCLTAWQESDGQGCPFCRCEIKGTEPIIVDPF

A further test concerns the target c-Cbl (residues 47-435) (Homo sapiens (Human), UniProt P22681). The test is described as follows: c-Cbl SPR assay. In kind it is binding. Conditions: 20° C. Here is the method: Affinity of binding to Cbl-b and c-Cbl for compounds described herein was assessed by surface plasmon resonance (SPR) according to the following protocol.
A surface capture range of 1300-1500 RU of protein was used for both isoforms.
For SPR measurements, 6 concentrations with 2 fold serial dilution were measured with blanks flanking each series for double referencing. […] SPR sensorgrams were recorded in multi-cycle kinetics format, with a contact time of 60 seconds and a flow rate of 40 μl/min, the dissociation time was varied between 120-1200 seconds aiming for 4-5 half-lives of the measured interaction.
Kinetic and affinity parameters were extracted from the multicycle kinetics data fitting to a 1:1 binding model using the Biacore™ Incyte evaluation software (Cytiva).
Chaser assay utilize a single cycle kinetics SPR experiment with a contact time of 120 seconds, a flow rate of 50 μl/min and a dissociation time of 450 seconds. Single cycle kinetics titration utilized an initial blank injection and 5 concentrations with 2 fold serial dilution with a maximum concentration of 500 nM, blanked to a preceding 6 point blank single cycle kinetics injection for double referencing.
The kd is measured independently by determining the percentage unoccupied compound binding site over time by measuring the binding of a chaser compound measured by SPR.
Chaser binding was measured by a multicycle kinetics SPR experiment using a contact time of 20 seconds, a flow rate of 30 μl/min, and a dissociation time of 120 seconds. […] The % compound bound at a given time was determined by comparison to a single injection of chaser preceding the single cycle kinetics titration defined below. % Compound Bound=(1−(RUT/RUT0))*100
The % compound bound is plotted against time in seconds and fit to a single exponential, where the exponent represents the kd of the compound-protein complex. The single cycle kinetics experiment of the compound is then fit with a fixed kd determined using the chaser.
(In general: Surface plasmon resonance follows binding to a sensor surface in real time, without labels.)

Chain of Cbl-b (Q13191 40-426): as above
Chain of c-Cbl (residues 47-435) (P22681 47-435): as the sequence (P22681 47-435) above

Regarding `Cn1cnnc1[C@@](O)(c1cccc(N2Cc3c(cc(CNC4(C)CCC4)cc3C(F)(F)F)C2=O)c1)C1COC1` (single isomer, unassigned) [Compound 143], on Cbl-b, half-maximal inhibition (IC50) required 62 nM and the “fold-selectivity (Cbl-b over C-cbl)” value is listed as 3.1x. Also, at c-Cbl, half-maximal inhibition (IC50) was put at 190 nM. Also, in test [1], the Fold of selectivity was found to be 4.3× and the Kd came out at 58 nM. For the same compound, the Kd at c-Cbl (residues 47-435) came to 220 nM.

Regarding `Cn1cnnc1[C@H](c1cccc(N2Cc3c(cc(CNC4(C)CCC4)cc3C(F)(F)F)C2=O)c1)C1(O)COC1` (single isomer, unassigned) [Compound 147], at Cbl-b, the half-inhibitory concentration (IC50) worked out at 13 nM and the “fold-selectivity (Cbl-b over C-cbl)” value is listed as 2.2x. Also, at c-Cbl, the midpoint of inhibition, the IC50, lay at 29 nM. In test [1], the Fold of selectivity was 9.6× and the dissociation constant Kd was found to be 3.6 nM. The Kd on c-Cbl (residues 47-435) worked out at 42 nM.

As for `Cn1cnnc1C1(c2cccc(N3Cc4c(cc([C@H](CO)NC5(C)CCC5)cc4C(F)(F)F)C3=O)c2)CCC1` (single isomer, unassigned) [Compound 148], on Cbl-b, it took 9.9 nM to reach half-maximal inhibition (IC50) and the “fold-selectivity (Cbl-b over C-cbl)” value is 4.4x. On c-Cbl, this compound gave an IC50 of 44 nM. In test [1], this compound gave a Fold of selectivity of 6.7× and a Kd of 9.3 nM. On c-Cbl (residues 47-435), this compound had a Kd of 63 nM.

On to `Cn1cnnc1C1(c2cccc(N3Cc4c(cc([C@@H](CO)NC5(C)CCC5)cc4C(F)(F)F)C3=O)c2)CCC1` (single isomer, unassigned) [Compound 149], for which, at Cbl-b, 4.9 nM corresponded to half-maximal inhibition (IC50) and the “fold-selectivity (Cbl-b over C-cbl)” value was determined as 0.82x. 4.1 nM corresponded to half-maximal inhibition against c-Cbl (IC50). In test [1], this compound displayed a Fold of selectivity of 4.7× and a dissociation constant Kd of 0.3 nM. At c-Cbl (residues 47-435), this compound returned a Kd of 1.4 nM.

As for `Cn1cnnc1C(F)(c1cccc(N2Cc3c(cc(CNC4(C)CCC4)cc3C(F)(F)F)C2=O)c1)C1COC1` (single isomer, unassigned) [Compound 150], on Cbl-b, the midpoint of inhibition, the IC50, lay at 9.1 nM and the “fold-selectivity (Cbl-b over C-cbl)” value stood at 1.4x. The compound further gave an IC50 against c-Cbl of 13 nM. Moreover, in test [1], the Fold of selectivity is 8.5× and the affinity, expressed as Kd, was 2.9 nM. Moreover, the equilibrium dissociation constant (Kd) on c-Cbl (residues 47-435) was determined as 28 nM.

Consider `Cn1cnnc1[C@@H](c1cc(F)cc(N2Cc3c(cc(CNC4(C)CCC4)cc3C(F)(F)F)C2=O)c1)C1COC1` (single isomer, unassigned) [Compound 152], for which, at Cbl-b, inhibition was half-maximal at 18 nM (IC50) and the “fold-selectivity (Cbl-b over C-cbl)” value is 2.9x. The compound also displayed an IC50 at c-Cbl of 52 nM. In test [1], this compound came in with a Fold of selectivity of 6.5× and a Kd of 8.7 nM. Besides, the affinity on c-Cbl (residues 47-435), expressed as Kd, was 59 nM.

`Cn1cnnc1[C@]1(c2cccc(N3Cc4c(cc(CNC5(C)CCC5)cc4C(F)(F)F)C3=O)c2)C[C@@H]([S@+](C)[O-])C1` (single isomer, unassigned) [Compound 160]: the IC50 against Cbl-b turned out to be 1300 nM; at c-Cbl, 5300 nM. The “fold-selectivity (Cbl-b over C-cbl)” value on Cbl-b stood at 3.9x. Further, in test [1], the Fold of selectivity amounted to 0.76×. Moreover, the Kd in test [1] was found to be 1300 nM; on c-Cbl (residues 47-435), 1000 nM.

Regarding `Cn1cnnc1[C@]1(c2cccc(N3Cc4c(cc(CNC5(C)CCC5)cc4C(F)(F)F)C3=O)c2)C[C@H]([S@@+](C)[O-])C1` (single isomer, unassigned) [Compound 161], at Cbl-b, the IC50 was 600 nM and the “fold-selectivity (Cbl-b over C-cbl)” value was 7.2x. Further, at c-Cbl, the concentration for half-maximal inhibition (IC50) was 4300 nM. In test [1], the Fold of selectivity is 6.6× and the dissociation constant (Kd) is 460 nM. Also, on c-Cbl (residues 47-435), the equilibrium dissociation constant (Kd) turned out to be 3000 nM.

Regarding `Cn1cnnc1[C@@H](c1cccc(N2Cc3c(cc(CNC4(C)CCC4)cc3C(F)(F)F)C2=O)c1)C1COC1` (single isomer, unassigned) [Compound 164], at Cbl-b, the half-maximal inhibitory concentration (IC50) turned out to be 8.9 nM and the “fold-selectivity (Cbl-b over C-cbl)” value was found to be 2.0x. The compound further yielded an IC50 on c-Cbl of 18 nM. Besides, in test [1], the Fold of selectivity came out at 7.0× and the dissociation constant Kd came to 1.9 nM. On c-Cbl (residues 47-435), this compound yielded a Kd of 14 nM.

Turning to `COC[C@@H]1CC1(c1cccc(N2Cc3c(cc(CNC4(C)CCC4)cc3C(F)(F)F)C2=O)c1)c1nncn1C` (single isomer, unassigned) [Compound 166], at Cbl-b, 1900 nM corresponded to half-maximal inhibition (IC50) and the “fold-selectivity (Cbl-b over C-cbl)” value is reported as 3.8x. The compound further returned an IC50 on c-Cbl of 7200 nM. In test [1], this compound returned a Fold of selectivity of 5.3× and a Kd of 710 nM. The same compound displayed a Kd at c-Cbl (residues 47-435) of 3800 nM.

On to `COC[C@H]1CC1(c1cccc(N2Cc3c(cc(CNC4(C)CCC4)cc3C(F)(F)F)C2=O)c1)c1nncn1C` (single isomer, unassigned) [Compound 167], for which, on Cbl-b, half-maximal inhibition (IC50) was put at 1400 nM and the “fold-selectivity (Cbl-b over C-cbl)” value was determined as 4.7x. Also, at c-Cbl, the IC50 stood at 6400 nM. Also, in test [1], the Fold of selectivity is reported as 5.8× and the Kd stood at 910 nM. This compound showed an equilibrium dissociation constant (Kd) at c-Cbl (residues 47-435) of 5200 nM.

Consider `C[C@H](c1cccc(N2Cc3c(cc(CNC4(C)CCC4)cc3C(F)(F)F)C2=O)c1)c1nncn1C` (single isomer, unassigned) [Compound 170], for which, at Cbl-b, the IC50 is 12 nM and the “fold-selectivity (Cbl-b over C-cbl)” value amounted to 1.0x. Moreover, on c-Cbl, inhibition was half-maximal at 12 nM (IC50). In test [1], this compound gave a Fold of selectivity of 2.8× and a Kd of 4.9 nM. For the same compound, the Kd on c-Cbl (residues 47-435) is 15 nM.

For the compound `C[C@@H](c1cccc(N2Cc3c(cc(CNC4(C)CCC4)cc3C(F)(F)F)C2=O)c1)c1nncn1C` (single isomer, unassigned) [Compound 171, 2-(3-(1-(4-methyl-4H-1,2,4-triazol-3-yl)ethyl)phenyl)-6-(((1-methylcyclobutyl)amino)methyl)-4-(trifluoromethyl)isoindolin-1-one], the concentration for half-maximal inhibition (IC50) was 1100 nM against Cbl-b and 2300 nM against c-Cbl. In addition, the “fold-selectivity (Cbl-b over C-cbl)” value on Cbl-b is reported as 2.0x. For the same compound, the Fold of selectivity in test [1] is reported as 2.1×. The figures for the Kd (in test [1]; on c-Cbl (residues 47-435)) were 800 nM and 1700 nM, respectively.

Take `CO[C@H]1C[C@@](c2cccc(N3Cc4c(cc(CN5CCN(C)C[C@@H]5C(C)C)cc4C(F)(F)F)C3=O)c2)(c2nncn2C)C1` (single isomer, unassigned) [Compound 172]: on Cbl-b, inhibition was half-maximal at 88 nM (IC50) and the “fold-selectivity (Cbl-b over C-cbl)” value was found to be 3.4x. On c-Cbl, this compound returned an IC50 of 290 nM. Moreover, in test [1], the Fold of selectivity was found to be 4.7× and the dissociation constant (Kd) is 67 nM. The same compound showed a Kd at c-Cbl (residues 47-435) of 310 nM.

Consider `C[C@H](NC1(C)CCC1)c1cc2c(c(C(F)(F)F)c1)CN(c1cccc(C3(c4nncn4C)CC(F)(F)C3)c1)C2=O` (single isomer, unassigned) [Compound 173], for which the IC50 at Cbl-b is 20 nM; against c-Cbl, 45 nM. The “fold-selectivity (Cbl-b over C-cbl)” value on Cbl-b is 2.2x. Moreover, the Fold of selectivity in test [1] came out at 6.3×. Further, the values for the Kd (in test [1]; at c-Cbl (residues 47-435)) were 7.9 nM and 49 nM, respectively.

Turning to `C[C@@H](NC1(C)CCC1)c1cc2c(c(C(F)(F)F)c1)CN(c1cccc(C3(c4nncn4C)CC(F)(F)C3)c1)C2=O` (single isomer, unassigned) [Compound 174], at Cbl-b, the 50% inhibitory concentration (IC50) came out at 8.5 nM and the “fold-selectivity (Cbl-b over C-cbl)” value is listed as 0.80x. This compound displayed an IC50 against c-Cbl of 6.8 nM. In test [1], this compound gave a Fold of selectivity of 2.8× and a dissociation constant (Kd) of 0.4 nM. The dissociation constant Kd on c-Cbl (residues 47-435) worked out at 1.1 nM.

The term IC50 denotes the concentration at which inhibition is half-maximal. Lower therefore signals higher potency. As a reminder, the Kd is the equilibrium constant for the complex coming apart. Read a high Kd as lower affinity.
